In PubChem BioAssay AID256 (DTP/NCI, 2004):
Toxic doses and inconclusive results are not listed. How the source made its calls: active means survival T/C of 150% or more; inactive means T/C below 125% in these data.

System: CD2F1 mice, L1210 leukemia ip, survival T/C
Assay: NCI In Vivo Anticancer Drug Screen. Data for tumor model L1210 Leukemia (intraperitoneal) in CD2F1 (CDF1) mice
Conditions: higher = longer survival
How it was run: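 Implant tumor; dose compound or vehicle; measure endpoint in both groups; report treated divided by control.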

[1] = endpoint: mean survival time, dose: 100.0 mg/kg/injection, schedule: Q01DX009 (ip), vehicle: saline
[2] = endpoint: mean survival time, dose: 200.0 mg/kg/injection, schedule: Q01DX009 (ip), vehicle: saline
[3] = endpoint: mean survival time, dose: 3.13 mg/kg/injection, schedule: Q04DX003 (ip), vehicle: distilled water + Tween-80
[4] = endpoint: mean survival time, dose: 6.25 mg/kg/injection, schedule: Q04DX003 (ip), vehicle: distilled water + Tween-80
[5] = endpoint: mean survival time, dose: 12.5 mg/kg/injection, schedule: Q04DX003 (ip), vehicle: distilled water + Tween-80
[6] = endpoint: mean survival time, dose: 25.0 mg/kg/injection, schedule: Q04DX003 (ip), vehicle: distilled water + Tween-80
[7] = endpoint: mean survival time, dose: 50.0 mg/kg/injection, schedule: Q04DX003 (ip), vehicle: distilled water + Tween-80
[8] = endpoint: mean survival time, dose: 100.0 mg/kg/injection, schedule: Q04DX003 (ip), vehicle: distilled water + Tween-80
[9] = endpoint: mean survival time, dose: 200.0 mg/kg/injection, schedule: Q04DX003 (ip), vehicle: distilled water + Tween-80
[10] = endpoint: mean survival time, dose: 100.0 mg/kg/injection, schedule: Q01DX009 (ip), vehicle: saline with Tween-80
[11] = endpoint: mean survival time, dose: 100.0 mg/kg/injection, schedule: Q04DX003 (ip), vehicle: saline with Tween-80
[12] = endpoint: mean survival time, dose: 200.0 mg/kg/injection, schedule: Q01DX009 (ip), vehicle: saline with Tween-80
[13] = endpoint: mean survival time, dose: 200.0 mg/kg/injection, schedule: Q04DX003 (ip), vehicle: saline with Tween-80
[14] = endpoint: mean survival time, dose: 400.0 mg/kg/injection, schedule: Q01DX009 (ip), vehicle: saline with Tween-80
[15] = endpoint: mean survival time, dose: 400.0 mg/kg/injection, schedule: Q04DX003 (ip), vehicle: saline with Tween-80
[16] = endpoint: mean survival time, dose: 50.0 mg/kg/injection, schedule: Q01DX009 (ip), vehicle: saline

Measured: T/C

OCCCNCc1ccccc1
inactive: [1] 97 % of control | [2] 96 % of control | endpoint: mean survival time, dose: 400.0 mg/kg/injection, schedule: Q01DX009 (ip), vehicle: saline 100 % of control

[I][Pt+2][I].[NH-]c1ccccc1F.[NH-]c1ccccc1F
inactive: [3] 98 % of control | [4] 101 % of control | [5] 98 % of control | [6] 101 % of control | [7] 102 % of control | [8] 98 % of control | [9] 101 % of control

O=C1c2ccccc2C(=O)c2c1ccc(O)c2O
inactive: [10] 97 % of control | [11] 102 % of control | [12] 97 % of control | [13] 100 % of control | [14] 90 % of control | [15] 100 % of control

CN(C)N=Nc1cc(C#N)cc(C#N)c1
inactive: endpoint: mean survival time, dose: 79.0 mg/kg/injection, schedule: Q01DX009 (ip), vehicle: Klucel (hydroxypropylcellulose) (HPC) 110 % of control | endpoint: mean survival time, dose: 118.0 mg/kg/injection, schedule: Q01DX009 (ip), vehicle: Klucel (hydroxypropylcellulose) (HPC) 110 % of control | endpoint: mean survival time, dose: 177.0 mg/kg/injection, schedule: Q01DX009 (ip), vehicle: Klucel (hydroxypropylcellulose) (HPC) 119 % of control | endpoint: mean survival time, dose: 266.0 mg/kg/injection, schedule: Q01DX009 (ip), vehicle: Klucel (hydroxypropylcellulose) (HPC) 113 % of control | endpoint: mean survival time, dose: 400.0 mg/kg/injection, schedule: Q01DX009 (ip), vehicle: Klucel (hydroxypropylcellulose) (HPC) 89 % of control

CC1CCC(C)(C)CC1(C)c1cc(CN(C)C)c(O)c(CN(C)C)c1 (stereo unspecified)
inactive: endpoint: mean survival time, dose: 12.5 mg/kg/injection, schedule: Q01DX009 (ip), vehicle: acetone 95 % of control | endpoint: mean survival time, dose: 25.0 mg/kg/injection, schedule: Q01DX009 (ip), vehicle: acetone 98 % of control | endpoint: mean survival time, dose: 50.0 mg/kg/injection, schedule: Q01DX009 (ip), vehicle: acetone 98 % of control

CCCc1cc(CCC)nc(NNc2nc(CCC)cc(CCC)n2)n1
inactive: [11] 96 % of control | [13] 94 % of control | [15] 96 % of control

CC1=C(/C=C/C(C)=C/C=C/C(C)=C/C(=O)Nc2ccc(O)cc2)C(C)(C)CCC1
inactive: endpoint: median survival time, dose: 12.5 mg/kg/injection, schedule: Q01DX005 (ip), vehicle: saline with Tween-80 98 % of control | endpoint: median survival time, dose: 25.0 mg/kg/injection, schedule: Q01DX005 (ip), vehicle: saline with Tween-80 101 % of control | endpoint: median survival time, dose: 50.0 mg/kg/injection, schedule: Q01DX005 (ip), vehicle: saline with Tween-80 98 % of control | endpoint: median survival time, dose: 100.0 mg/kg/injection, schedule: Q01DX005 (ip), vehicle: saline with Tween-80 92 % of control | endpoint: median survival time, dose: 200.0 mg/kg/injection, schedule: Q01DX005 (ip), vehicle: saline with Tween-80 96 % of control

CC(=O)Nc1ccc(CCc2nc(NC(C)=O)nc(Cl)c2-c2ccc(Cl)c(Cl)c2)cc1
inactive: endpoint: mean survival time, dose: 75.0 mg/kg/injection, schedule: Q01DX001 (ip), vehicle: saline with Tween-80 103 % of control | endpoint: mean survival time, dose: 150.0 mg/kg/injection, schedule: Q01DX001 (ip), vehicle: saline with Tween-80 101 % of control | endpoint: mean survival time, dose: 300.0 mg/kg/injection, schedule: Q01DX001 (ip), vehicle: saline with Tween-80 94 % of control

[Ni+2].[S-]Cc1ccccc1.[S-]Cc1ccccc1
inactive: endpoint: mean survival time, dose: 100.0 mg/kg/injection, schedule: Q01DX001 (ip), vehicle: saline 100 % of control | endpoint: mean survival time, dose: 200.0 mg/kg/injection, schedule: Q01DX001 (ip), vehicle: saline 96 % of control

O=C1c2ccccc2C(=O)N1CCS(=O)(=O)O
inactive: endpoint: mean survival time, dose: 100.0 mg/kg/injection, schedule: Q04DX002 (ip), vehicle: saline with Tween-80 97 % of control | endpoint: mean survival time, dose: 200.0 mg/kg/injection, schedule: Q04DX002 (ip), vehicle: saline with Tween-80 94 % of control | endpoint: mean survival time, dose: 400.0 mg/kg/injection, schedule: Q04DX002 (ip), vehicle: saline with Tween-80 94 % of control

CN(C)CCNc1ccc(O)c2c1C(=O)c1ccccc1C2=O
inactive: endpoint: mean survival time, dose: 10.0 mg/kg/injection, schedule: Q01DX009 (ip), vehicle: saline with Tween-80 94 % of control | endpoint: mean survival time, dose: 20.0 mg/kg/injection, schedule: Q01DX009 (ip), vehicle: saline with Tween-80 90 % of control | endpoint: mean survival time, dose: 40.0 mg/kg/injection, schedule: Q01DX009 (ip), vehicle: saline with Tween-80 107 % of control | endpoint: mean survival time, dose: 80.0 mg/kg/injection, schedule: Q01DX009 (ip), vehicle: saline with Tween-80 122 % of control

O=C(Nc1cccc(O)c1)C1CC1
inactive: endpoint: mean survival time, dose: 100.0 mg/kg/injection, schedule: Q01DX001 (ip), vehicle: saline with Tween-80 105 % of control | endpoint: mean survival time, dose: 200.0 mg/kg/injection, schedule: Q01DX001 (ip), vehicle: saline with Tween-80 94 % of control

O=c1[nH]c(=O)n(C2CC(O)C(CO)O2)cc1I (stereo unspecified)
inactive: endpoint: mean survival time, dose: 50.0 mg/kg/injection, schedule: Q01DX007 (ip), vehicle: saline 110 % of control | [16] 106 % of control | endpoint: mean survival time, dose: 50.0 mg/kg/injection, schedule: Q03DX003 (ip), vehicle: saline 104 % of control | endpoint: mean survival time, dose: 50.0 mg/kg/injection, schedule: Q04DX003 (ip), vehicle: saline 101 % of control | endpoint: mean survival time, dose: 100.0 mg/kg/injection, schedule: Q01DX007 (ip), vehicle: saline 117 % of control | [1] 108 % of control | endpoint: mean survival time, dose: 100.0 mg/kg/injection, schedule: Q03DX003 (ip), vehicle: saline 107 % of control | endpoint: mean survival time, dose: 100.0 mg/kg/injection, schedule: Q04DX003 (ip), vehicle: saline 106 % of control | endpoint: mean survival time, dose: 200.0 mg/kg/injection, schedule: Q01DX007 (ip), vehicle: saline 108 % of control | [2] 111 % of control | endpoint: mean survival time, dose: 200.0 mg/kg/injection, schedule: Q03DX003 (ip), vehicle: saline 115 % of control | endpoint: mean survival time, dose: 200.0 mg/kg/injection, schedule: Q04DX003 (ip), vehicle: saline 106 % of control | endpoint: mean survival time, dose: 500.0 mg/kg/injection, schedule: Q01DX009 (ip), vehicle: saline 107 % of control | endpoint: mean survival time, dose: 1000.0 mg/kg/injection, schedule: Q01DX009 (ip), vehicle: saline 103 % of control

Nc1c(Cl)c(Cl)nc(C(=O)O)c1Cl
inactive: endpoint: mean survival time, dose: 25.0 mg/kg/injection, schedule: Q01DX009 (ip), vehicle: Klucel (hydroxypropylcellulose) (HPC) 98 % of control | endpoint: mean survival time, dose: 25.0 mg/kg/injection, schedule: Q01DX009 (ip), vehicle: saline with Tween-80 100 % of control | endpoint: mean survival time, dose: 50.0 mg/kg/injection, schedule: Q01DX009 (ip), vehicle: Klucel (hydroxypropylcellulose) (HPC) 98 % of control | endpoint: mean survival time, dose: 50.0 mg/kg/injection, schedule: Q01DX009 (ip), vehicle: saline with Tween-80 94 % of control | [16] 97 % of control | endpoint: mean survival time, dose: 100.0 mg/kg/injection, schedule: Q01DX009 (ip), vehicle: Klucel (hydroxypropylcellulose) (HPC) 90 % of control | [10] 97 % of control | [1] 97 % of control | endpoint: mean survival time, dose: 200.0 mg/kg/injection, schedule: Q01DX009 (ip), vehicle: Klucel (hydroxypropylcellulose) (HPC) 100 % of control | [12] 97 % of control | [2] 101 % of control | [14] 101 % of control

CC(O)(P(=O)(O)O)P(=O)(O)O.[NH-]CC[NH-].[NH-]CC[NH-].[Pt+2].[Pt+2]
inactive: [3] 104 % of control | [4] 104 % of control | [5] 88 % of control | [6] 103 % of control | [7] 119 % of control | [8] 124 % of control | [9] 111 % of control

COc1cc2ccc3c4cc(OC)c(OC)cc4c[n+](C)c3c2cc1O
inactive: endpoint: mean survival time, dose: 75.0 mg/kg/injection, schedule: Q04DX003 (ip), vehicle: Klucel (hydroxypropylcellulose) (HPC) 113 % of control | endpoint: mean survival time, dose: 150.0 mg/kg/injection, schedule: Q04DX003 (ip), vehicle: Klucel (hydroxypropylcellulose) (HPC) 113 % of control | endpoint: mean survival time, dose: 300.0 mg/kg/injection, schedule: Q04DX003 (ip), vehicle: Klucel (hydroxypropylcellulose) (HPC) 119 % of control

O=C(Nc1cccc2c1C(=O)c1ccc(Nc3cc(NC(=O)c4ccccc4)c4c(c3)C(=O)c3ccccc3C4=O)cc1C2=O)c1ccccc1
inactive: [10] 106 % of control | [11] 102 % of control | [12] 102 % of control | [13] 102 % of control | [14] 119 % of control | [15] 96 % of control

C=CC1CN2CCC1CC2C(O)c1ccnc2ccc(OC)cc12 (stereo unspecified)
inactive: endpoint: mean survival time, dose: 18.75 mg/kg/injection, schedule: Q01DX009 (ip), vehicle: saline with Tween-80 105 % of control | endpoint: mean survival time, dose: 37.5 mg/kg/injection, schedule: Q01DX009 (ip), vehicle: saline with Tween-80 101 % of control | endpoint: mean survival time, dose: 75.0 mg/kg/injection, schedule: Q01DX009 (ip), vehicle: saline with Tween-80 103 % of control
